Assay: xn = mol fraction of the nth substance listed
Settings: 101 kPa

CCCCCCCCCCCC[N+](C)(C)Cc1ccccc1.[Cl-] + NCC(=O)NCC(=O)O + O
electrical conductivity [S/m]
Settings | 293.15 K | 298.15 K | 303.15 K | 308.15 K | 313.15 K
x2 = 0.0008945, x1 = 0.0002797 | 0.0793 | 0.0896 | 0.0999 | 0.111 | 0.123
x2 = 0.0008945, x1 = 0.0003 | 0.0824 | 0.0938 | 0.105 | 0.117 | 0.129
x2 = 0.0008945, x1 = 0.0003225 | 0.086 | 0.0984 | 0.109 | 0.123 | 0.135
x2 = 0.0008945, x1 = 0.0003431 | 0.0893 | 0.102 | 0.115 | 0.128 | 0.14
x2 = 0.0008946, x1 = 0.0001787 | 0.0623 | 0.069 | 0.0771 | 0.086 | 0.0944
x2 = 0.0008946, x1 = 0.000206 | 0.0676 | 0.0752 | 0.0839 | 0.093 | 0.103
x2 = 0.0008946, x1 = 0.0002337 | 0.0721 | 0.081 | 0.09 | 0.0999 | 0.111
x2 = 0.0008946, x1 = 0.0002576 | 0.0759 | 0.0855 | 0.0949 | 0.106 | 0.118
x2 = 0.0008947, x1 = 6.107e-05 | 0.0231 | 0.0264 | 0.0294 | 0.0327 | 0.036
x2 = 0.0008947, x1 = 8.317e-05 | 0.0312 | 0.0352 | 0.0392 | 0.0433 | 0.0476
x2 = 0.0008947, x1 = 0.0001051 | 0.0388 | 0.0437 | 0.0485 | 0.0537 | 0.059
x2 = 0.0008947, x1 = 0.0001274 | 0.0473 | 0.0523 | 0.0589 | 0.0647 | 0.0718
x2 = 0.0008947, x1 = 0.000152 | 0.0562 | 0.0624 | 0.0692 | 0.0771 | 0.0851
x2 = 0.001798, x1 = 0.0001447 | 0.056 | 0.0627 | 0.0696 | 0.0768 | 0.0846
x2 = 0.001798, x1 = 0.0001707 | 0.063 | 0.0704 | 0.0781 | 0.0865 | 0.0956
x2 = 0.001798, x1 = 0.0001977 | 0.0685 | 0.0766 | 0.0852 | 0.0946 | 0.105
x2 = 0.001798, x1 = 0.0002221 | 0.0729 | 0.0816 | 0.091 | 0.101 | 0.113
x2 = 0.001798, x1 = 0.0002443 | 0.0767 | 0.0861 | 0.0963 | 0.107 | 0.12
x2 = 0.001798, x1 = 0.0002649 | 0.0802 | 0.0902 | 0.101 | 0.112 | 0.126
x2 = 0.001798, x1 = 0.000284 | 0.0835 | 0.094 | 0.105 | 0.118 | 0.131
x2 = 0.001798, x1 = 0.0003015 | 0.0864 | 0.0974 | 0.109 | 0.122 | 0.137
x2 = 0.001798, x1 = 0.000321 | 0.0898 | 0.101 | 0.114 | 0.127 | 0.142
x2 = 0.001799, x1 = 5.376e-05 | 0.0229 | 0.0259 | 0.029 | 0.0323 | 0.0357
x2 = 0.001799, x1 = 7.599e-05 | 0.0313 | 0.0352 | 0.0394 | 0.0437 | 0.0482
x2 = 0.001799, x1 = 9.786e-05 | 0.0395 | 0.0443 | 0.0494 | 0.0546 | 0.0601
x2 = 0.001799, x1 = 0.0001201 | 0.0476 | 0.0533 | 0.0593 | 0.0655 | 0.0721

— the CheMixHub ionic liquid set
